# Data: patent US20180116972A1, “Lipid based nanocarrier compositions loaded with metal nanoparticles and therapeutic agent” (UNIVERSITE DE BORDEAUX, priority 2015, published 2018)
# Entries after “also recorded” stand apart in the source; their conditions may differ.
# Experiments:
# [1] = Stability of a suspension of iron oxide nanoparticles clusters encapsulated by a lipid (DOPC) versus a nucleolipid (DOTAU); details: Milli-Q water, sonicated 3×15 minutes
# Experimental: 75 μL of stock solution of (DOPC) (Avanti Polar ipids, 50 mg/mL in chloroform) and 20 μL of stock solution of iron oxide nanoparticles (10 mg/mL in chloroform) were mixed. The organic phase was added dropwise into the aqueous phase (2 ml of Milli-Q Water) placed in glass tube under stirring by vortex. Then the mixture was placed in a glass flask. Chloroform was removed under vacuum and the resulting crude material solution was sonicated 3 times (3×15 minutes) to give a precipitate.
# The same protocol was followed, except that the nucleolipid N-[5′-(2′,3′-dioleoyl)uridine]-N′,N′,N′-trimethylammonium (DOTAU) was used instead of DOPC.
# [2] = test system: Platelet rich plasma (PRP); assay: In vitro platelet aggregation (light transmission aggregometer); format: cell-based, healthy volunteers; details: 37° C.
# Experimental: Blood was obtained in 1/10th volume of 3.8% sodium citrate from healthy volunteers who had not taken any drugs known to affect platelet function for 2 weeks prior to the study. Platelet rich plasma (PRP) was prepared by centrifugation at 20° C. for 10-15 min at 150-200 g and stored at room temperature.
# Platelet-poor plasma (PPP) was prepared by further centrifugation of the remaining plasma at 2700 g for 15 min and was used to calibrate the 100% light transmission of the aggregometer.
# The percentage of aggregation was followed versus time. PRP (207 μL) was stirred in cuvette at 37° C. and agonists adenosine 5′-diphosphate (ADP) or thrombin receptor-activating peptide -6 (TRAP-6) were added at 5 s to promote platelet aggregation, and was incubated either with the DOU-PEG2000-based nanocarrier composition containing iron oxide nanoparticles and prostacyclin (PGI2) of example 2, or with the iron oxide nanoparticles clusters encapsulated by diC16dT of preparation 2 (used as negative control) or with the agonist(s) only (negative control) or with the agonist(s) and PGI2 (positive control) for 15 min and 3 h for evaluating PGI2 activity. The in vitro platelet aggregation was determined using a four-channel light transmission aggregometer (APACT 4004, ELITech, France).
# The results are shown on FIG. 12, where the curves numbered 1 to 7 represent the following experimental conditions: […]
# [3] = Size distribution measured by Dynamic Light Scattering (DLS); format: physicochemical
molecule,measurement,setting,value
"CCCCCCCC/C=C\CCCCCCCC(=O)O[C@@H]1[C@H](OC(=O)CCCCCCC/C=C\CCCCCCCC)[C@@H](C[N+](C)(C)C)O[C@H]1n1ccc(=O)[nH]c1=O [DOTAU, N-[5′-(2′,3′-dioleoyl)uridine]-N′,N′,N′-trimethylammonium]",colloidal stability of the iron oxide nanoparticle suspension after sonication,[1],did not give a precipitate; also recorded: stable colloïdal suspension
"CCCCC[C@H](O)/C=C/[C@@H]1[C@H]2C/C(=C/CCCC(=O)O)O[C@H]2C[C@H]1O [PGI2, prostacyclin]",platelet aggregation induced by ADP,"[2]; agonist ADP, 15 min incubation",totally inhibit
same,platelet aggregation induced by TRAP-6,"[2]; agonist TRAP-6, 3 h incubation",totally inhibit
APOA1: Apolipoprotein-A1 (Sigma Aldrich),size distribution by number measured by DLS (d),[3],5.01 nm
